Measurements from patent US8779779B2, “On-chip cell migration detection” (CapitalBio Corporation, priority 2008, dated 2014).

Tested on: Vero-E6 cells
Test: Real time inhibition assay of cell migration (on-chip SAM wound edge with cellular impedance sensing)
Type: cell-based
Method: For at least one of the electrodes, the surface is treated with a chemical coating that inhibits cell adhesion onto the electrode (302). This generates a chemical coat-modified surface on the electrodes. The chemical coating maintains contact with the surface of the electrodes until desorbed by application of an electrical signal capable of desorbing the coating. The chemical coating can be applied by contacting the electrodes with a solution or suspension of coating material in a carrier, or by contacting the electrode with the coating material without a carrier. A background impedance value is measured in absence of cells (304). After measuring the background impedance (Z0), target cells are added to the device (306). A layer of cells is allowed to grow on the surface of the device (308). […] As a result, all the cells grow on the surface of the SiO2 insulation substrate forming a cell monolayer. After incubation, wound edges are formed automatically on the device. Once the cells have grown over the surfaces, an electrical signal is applied to the electrodes, which causes the chemical coating to desorb from the electrodes (310). This provides a cell-free electrode surface surrounded by cells growing on the adjacent insulation. The cell impedance (Zx) is monitored in real-time as the cells grow or migrate across the electrodes (312). Cells growing on the electrodes can cause measurable changes in the electrical properties of the circuit, e.g., impedance; consequently, the rate of cell migration or spreading can be monitored by monitoring electrical properties of the electrodes. The final impedance data is normalized as Zx/Z0 (314). The normalized impedance data reflects the impedance variation induced by the attachment of the cells.
For illustrative purposes, the process 300 is described using an example protocol for monitoring cell migration. An example protocol includes preparing an impedance measuring device (e.g., device 100) for impedance measurement by sterilizing the device. After sterilization, (e.g., in 75% ethanol for 20 minutes and then exposure to UV irradiation for another 30 minutes), a thiol compound is added to the microfluidic cavities. Thiol compound (HS(CH2)11(OCH2CH2)6OH (abbreviated as “EG6”) is obtained from Sigma-Aldrich (St. Louis, Mo.). EG6 (1.5 mM in ethanol) can be added to each microfluidic cavity of the device using a syringe and incubated for 8 hours at room temperature. Then, the microfluidic cavities are washed by ethanol followed by PBS buffer. Before cell seeding, tissue culture media is injected into chambers of the device to read the background impedance value (Z0). […]
At the same time, the impedance (Zx) is measured in real-time with a time resolution of 5 minutes, for example. […]

COc1cc2c(c(OC)c1OC)-c1ccc(OC)c(=O)cc1[C@@H](NC(C)=O)CC2 [colchicine]
time point at which the cells heal a wound (t0.1; impedance saturation) (0.1 μM colchicine, Vero-E6 cells, control tc=4.2±0.17 h): 4.6 ± 0.19 h
time point at which the cells heal a wound (t0.2; impedance saturation) (0.2 μM colchicine, Vero-E6 cells, control tc=4.2±0.17 h): 5.1 ± 0.21 h
time point at which the cells heal a wound (t0.4; impedance saturation) (0.4 μM colchicine, Vero-E6 cells, control tc=4.2±0.17 h): 8.2 ± 0.42 h
inhibition effect on Vero-E6 cell migration (average speed AS) (0.1, 0.2 and 0.4 μM, AS=R×t^−1, FIG. 7B): inhibits Vero-E6 cell migration in a drug concentration dependant manner
